Test results as given in patent US11149046B2, “Antibacterial sideromycins” (Hsiri Therapeutics, Inc., priority 2014, dated 2021).
In brackets after ≈: the same amount, converted by molar mass. Several values for one entry are separate records, joined by “and”; a condition that tells them apart may be missing. Identical values can stand only once. Entries after “also recorded” stand apart in the source; their conditions may differ. Like-named read-outs stand apart in the source and are kept apart here.

Assays:
[1] = system: A. baumannii ATCC 17961; test: MIC determination; type: cell-based, Acinetobacter baumannii
Source text: (§1) Table 3 that was included in the first Example 4 section provides antibacterial data for the first synthetic sideromycins we prepared and studied. The second Example 4 section elaborated and expanded on that data with inclusion of representative antibacterial data in the text and associated pictures of Petri dish assays. MIC (minimum inhibition concentration) is given in μM and AD (agar diffusion zones of inhibition are given in mm from Kirby-Bauer Petri dish growth inhibition studies).

[2] = system: P. aeruginosa KW799/61 (permeability mutant); test: microbe, parasite or virus in culture; type: cell-based, Pseudomonas aeruginosa
Source text: (§2) MIC (minimum inhibition concentration) is given in μM and AD (agar diffusion zones of inhibition are given in mm from Kirby-Bauer Petri dish growth inhibition studies).

[3] = system: M. luteus ATCC-10240; test: MIC determination; type: cell-based; conditions: iron deficient media
[4] = system: M. vaccae IMET-10760; test: MIC determination; type: cell-based; conditions: iron deficient media
[5] = system: P. aeruginosa KW799/wt; test: MIC determination; type: cell-based, Pseudomonas aeruginosa; conditions: for MIC: Pseudomonas aeruginosa, KW799/WT
Source text: as §1

[6] = system: S. aureus SG511; test: MIC determination; type: cell-based; conditions: iron deficient media
[7] = system: B. subtilis ATCC-6633; test: MIC determination; type: cell-based; conditions: iron deficient media
[8] = system: E. coli DC2 (permeability mutant); test: MIC determination; type: cell-based
Source text: as §1

[9] = system: E. coli DC0; test: MIC determination; type: cell-based; conditions: for MIC: Escherichia coli
Source text: as §1

[10] = system: Pseudomonas aeruginosa KW799/wt; test: Agar diffusion (Kirby-Bauer) assay; type: cell-based; conditions: wild type Pseudomonas; FIG. 8, 9, 12; listed as YML-1-18
Source text: as §1

[11] = system: E. coli DC2; test: Agar diffusion (Kirby-Bauer) assay; type: cell-based; conditions: Table 5
Source text: as §1

[12] = system: E. coli DC0; test: Agar diffusion (Kirby-Bauer) assay; type: cell-based; conditions: Table 5
Source text: as §1

[13] = system: Acinetobacter baumannii ATCC 17961; test: Agar diffusion (Kirby-Bauer) assay, with and without hydrogel; type: cell-based; conditions: Acinetobacter; FIG. 8, 9, 10
Source text: as §1
We investigated whether the sideromycin absorbed in the gel be able to diffuse out of the gel and into the agar to effect antibacterial growth. As a control, the sideromycin alone, without gel, was added in a separate 9 mm well, as usual.
The second question was whether the sideromycin continue to be released and be able to effect bacterial growth inhibition over extended periods. Thus, additional identical agar plates were prepared and stored at 4° C. for 24, 48 and 72 hours to allow diffusion of the sideromycin (control and gel forms) into the agar before allowing the bacteria to grow in an incubator. Then after each time period, the Petri dishes were incubated at 37° C. for 20 hours to promote bacteria growth in the agar. […] The study has been extended to as long as 168 hours (one week) with retention of antibiotic effectiveness.

[14] = system: Pa4; test: MIC determination; type: cell-based, Pseudomonas aeruginosa; conditions: Pseudomonas aeruginosa; Table 5
Source text: as §1

[15] = system: Pa-Da-1304 CF patient isolate; test: MIC determination; type: cell-based, Pseudomonas aeruginosa; conditions: Pseudomonas aeruginosa
Source text: as §2
We obtained a clinical isolate of Pseudomonas from a cystic fibrosis patient.

[16] = system: Pseudomonas aeruginosa 01 (Pa01); test: MIC determination; type: cell-based; conditions: Pseudomonas aeruginosa
Source text: as §1

[17] = system: Pa6; test: MIC determination; type: cell-based, Pseudomonas aeruginosa; conditions: Pseudomonas aeruginosa; Table 5; read-out: MIC
Source text: as §2

[18] = system: A. baumannii ARC 3486; test: MIC determination; type: cell-based; conditions: Acinetobacter baumannii, ARC3486; Table 2; read-out: in vitro activity (MIC)
[19] = system: S. Aureus ISR 14-001; test: MIC determination; type: cell-based; conditions: Staphylococcus aureus; Table 2; read-out: in vitro activity (MIC)
[20] = system: S. Aureus ISR-002; test: MIC determination; type: cell-based; conditions: Staphylococcus aureus; Table 2; read-out: in vitro activity (MIC)
[21] = system: Burkholderia multivorans AU0100; test: MIC determination; type: cell-based; conditions: Table 2, read-out: in vitro activity (MIC)
[22] = system: A. baumannii ISR 14-0061; test: MIC determination; type: cell-based; conditions: Acinetobacter baumannii, ISR140061; Table 2; read-out: in vitro activity (MIC)
[23] = system: P. aeruginosa Pa6; test: Agar diffusion assay; type: cell-based, Pseudomonas aeruginosa; conditions: M-HII media, 0.5 mM (ciprofloxacin 5 μg/ml), 50 uL per well, 37° C. 20 hrs, P unclear, V very unclear zone
Protocol: (§3) Antibiotic activity was determined using agar diffusion assays against representative Gram-negative bacteria, including Pseudomonas aeruginosa (Pa6), and several multidrug resistant forms of Acinetobacter baumannii. Representative results are shown in Table 1 and a corresponding picture of an actual petri dish showing the agar diffusion results (FIG. 4). […]. [table]

[24] = system: A. baumannii BAA 1800; test: Agar diffusion assay; type: cell-based, Acinetobacter baumannii; conditions: M-HII media, 0.5 mM (ciprofloxacin 5 μg/ml), 50 uL per well, 37° C. 20 hrs
Protocol: as §3

[25] = system: A. baumannii BAA 1793; test: Agar diffusion assay; type: cell-based, Acinetobacter baumannii; conditions: M-HII media, 0.5 mM (ciprofloxacin 5 μg/ml), 50 uL per well, 37° C. 20 hrs, P unclear zone
Protocol: as §3

[26] = system: A. baumannii BAA 1710; test: Agar diffusion assay; type: cell-based, Acinetobacter baumannii; conditions: M-HII media, 0.5 mM (ciprofloxacin 5 μg/ml), 50 uL per well, 37° C. 20 hrs, P unclear zone
Protocol: as §3

[27] = system: A. baumannii BAA 1797; test: Agar diffusion assay; type: cell-based, Acinetobacter baumannii; conditions: M-HII media, 0.5 mM (ciprofloxacin 5 μg/ml), 50 uL per well, 37° C. 20 hrs, P unclear zone
Protocol: as §3

[28] = system: strains of Pseudomonas and Acinetobacter; test: Antibacterial activity, general statements; type: cell-based; conditions: general statements of the text
Protocol: Antibiotic activity was determined using agar diffusion assays against representative Gram-negative bacteria, including Pseudomonas aeruginosa (Pa6), and several multidrug resistant forms of Acinetobacter baumannii. Representative results are shown in Table 1 and a corresponding picture of an actual petri dish showing the agar diffusion results (FIG. 4). […].

[29] = system: Acinetobacter baumannii ATCC 17961; test: In vivo activity against Acinetobacter baumannii in mice (FIG. 7); conditions: 50 mg/kg IV at 30 min and 24 hr post inoculation; IP 10^8 A. baumannii ATCC 17961; female ICR mice
Protocol: Y-axis is percent surviving; x-axis is days after inoculation. Note: 5/5 Vehicle and 5/5 daptomycin treated mice were all dead at Day 1; […] female ICR mice; IP inoculation with 10^8 Acinetobacter baumannii ATCC 17961; Treatment administered IV at 30 min and 24 hr post inoculation; Treatments—Ciprofloxacin 50 mg/kg, HT-10100 mg/kg, HT-10 50 mg/kg, HT-10 25 mg/kg, HT-10 10 mg/kg, HT-10 5 mg/kg, daptomycin 50 mg/kg, Vehicle.

[30] = system: multi-drug resistant Acinetobacter; test: Dose dependent agar diffusion (FIG. 5); type: cell-based
Source text: Note Daptomycin is not active (arrow),

[31] = iron deficient media, read-out: MIC in Fe(−)MHII Media
[32] = Acinetobacter baumannii, ATCC17961, Table 2, read-out: in vitro activity (MIC)
[33] = Table 2, read-out: in vitro activity (MIC)

Compound: CC(=O)Oc1cccc(C(=O)NCCCCN(CC(=O)NC(C(=O)NC2C(=O)N3C2SC(C)(C)C3C(=O)[O-])c2ccccc2)C(=O)c2cccc(OC(C)=O)c2OC(C)=O)c1OC(C)=O.[Na+] (stereo not drawn) [HKI-9924154]
- MIC in Fe(−)MHII Media ([1]; iron deficient media): 0.313 µg/mL
- MIC [1, 31]: 0.34 µM
- MIC ([1]; read-out: MIC): 0.34 µM
- MIC in Fe(−)MHII Media ([2]; iron deficient media): 0.13 µg/mL
- MIC in Fe(−)MHII Media [3]: >10 µg/mL
- MIC in Fe(−)MHII Media [4]: >10 µg/mL
- MIC in Fe(−)MHII Media ([5]; iron deficient media): 0.04 to 0.052 µg/mL
- MIC in Fe(−)MHII Media [6]: >10 µg/mL
- MIC in Fe(−)MHII Media [7]: >10 µg/mL
- MIC in Fe(−)MHII Media ([8]; iron deficient media): <0.005 µg/mL
- MIC in Fe(−)MHII Media ([9]; iron deficient media): <0.005 µg/mL

Compound: CC(=O)Oc1cccc(C(=O)NCCCCN(CC(=O)N[C@@H](C(=O)N[C@@H]2C(=O)N3C2SC(C)(C)[C@@H]3C(=O)O)c2ccccc2)C(=O)c2cccc(OC(C)=O)c2OC(C)=O)c1OC(C)=O (stereo partly drawn) [YML-I-18]
- MIC ([1]; Acinetobacter baumannii, ATCC17961, iron deficient media, read-out: MIC in Fe(−)MHII Media): 0.313 µg/mL
- MIC ([1]; Acinetobacter baumannii, ATCC17961, text, read-out: MIC): 0.156 µg/mL to 0.313 µg/mL and 0.34 µM
- MIC ([1]; iron deficient media, listed as HKI-9924116, read-out: MIC in Fe(−)MHII Media): 0.34 µM
- MIC ([1]; iron deficient media, listed as YML-1-18, read-out: MIC in Fe(−)MHII Media): 0.156 µM
- zones of inhibition (in words) [10]: impressive zones of inhibition; also recorded: potently active
- AD = agar diffusion inhibition zones [11]: (AD = 40) mm
- AD = agar diffusion inhibition zones [12]: (AD = 32) mm
- zones of inhibition (in words) [13]: impressive zones of inhibition
- MIC ([2]; Pseudomonas aeruginosa, read-out: MIC in Fe(−)MHII Media): 0.052 µg/mL (≈ 0.0566 µM)
- MIC ([3]; Micrococcus luteus, ATCC10240, read-out: MIC in Fe(−)MHII Media): > 10 µg/mL
- MIC ([4]; Mycolicibacterium vaccae, IMET10760, read-out: MIC in Fe(−)MHII Media): > 10 µg/mL
- MIC [14]: 0.03 µM (≈ 0.0275 µg/mL)
- MIC ([5]; Table 5, read-out: MIC): 0.0156 to 0.0313 µM (≈ 0.0143 to 0.0287 µg/mL)
- MIC [5, 31]: 0.0156 µM (≈ 0.0143 µg/mL)
- MIC in Fe(−)MHII Media ([5]; iron deficient media, listed as HKI-9924116): (0.0156 μM
- increase in antibiotic activity over ampicillin ([5]; several strains of P. aeruginosas (entries 1 and 2, Table 3)): 16000 fold
- MIC ([15]; Table 5): 0.4 to 0.75 µM (≈ 0.367 to 0.688 µg/mL)
- MIC ([15]; clinical isolate from a cystic fibrosis patient): 0.4 to 0.75 µM (≈ 0.367 to 0.688 µg/mL)
- MIC ([6]; Staphylococcus aureus, SG511, read-out: MIC in Fe(−)MHII Media): > 10 µg/mL
- MIC ([7]; Bacillus subtilis, ATCC6633, read-out: MIC in Fe(−)MHII Media): > 10 µg/mL
- MIC ([16]; Table 5, read-out: MIC): 0.0156 µM (≈ 0.0143 µg/mL)
- MIC ([8]; Escherichia coli, read-out: MIC in Fe(−)MHII Media): < 0.005 µg/mL
- MIC ([9]; DC0, iron deficient media, read-out: MIC in Fe(−)MHII Media): < 0.005 µg/mL
- MIC ([9]; representative strains of E. coli (entries 4-5, Table 3: DC0, DC2), read-out: MIC): < 0.005 µg/mL
- MIC [17]: > 100 µM

Compound: O=C(O)c1cn(C2CC2)c2cc(N3CCNCC3)c(F)cc2c1=O [ciprofloxacin, reference compound]
- MIC [1, 32]: 0.2 µM
- MIC [18]: > 5 µM
- MIC [19]: 0.2 µM (≈ 0.0663 µg/mL)
- MIC [20]: > 5 µM
- MIC [21]: > 5 µM
- MIC [22]: > 5 µM
- Zone of Growth Inhibition [23]: 0 mm
- Zone of Growth Inhibition [24]: 0 mm
- Zone of Growth Inhibition [25]: 0 mm
- Zone of Growth Inhibition [26]: 0 mm
- Zone of Growth Inhibition [27]: 0 mm
- antibacterial activity (in words) [28]: completely inactive
- MIC [16, 33]: 0.2 µM (≈ 0.0663 µg/mL)
- MIC ([9]; DC0, Table 2, printed E. coli DCO, read-out: in vitro activity (MIC)): 0.2 µM

Compound: CCCCCCCCCC(=O)N[C@@H](Cc1c[nH]c2ccccc12)C(=O)N[C@H](CC(N)=O)C(=O)N[C@@H](CC(=O)O)C(=O)N[C@@H]1C(=O)NCC(=O)N[C@@H](CCCN)C(=O)N[C@@H](CC(=O)O)C(=O)N[C@H](C)C(=O)N[C@@H](CC(=O)O)C(=O)NCC(=O)N[C@H](CO)C(=O)N[C@@H]([C@H](C)CC(=O)O)C(=O)N[C@@H](CC(=O)c2ccccc2N)C(=O)O[C@@H]1C [daptomycin]
- MIC [1, 32]: > 100 µM
- treated mice dead at Day 1 [29]: 5/5
- MIC [18]: > 200 µM
- MIC [19]: 0.8 µM (≈ 1.3 µg/mL)
- MIC [20]: 0.8 µM (≈ 1.3 µg/mL)
- in vitro activity (in words) [30]: not active
- MIC [21]: > 100 µM
- MIC [22]: > 100 µM
- zone of inhibition at 500 µM ([23]; Pseudomonas aeruginosa, PA6, read-out: Zone of Growth Inhibition): 0 mm
- zone of inhibition at 500 µM ([24]; Acinetobacter baumannii, BAA1800, read-out: Zone of Growth Inhibition): 0 mm
- zone of inhibition at 500 µM ([25]; Acinetobacter baumannii, BAA1793, read-out: Zone of Growth Inhibition): 0 mm
- zone of inhibition at 500 µM ([26]; Acinetobacter baumannii, BAA1710, read-out: Zone of Growth Inhibition): 0 mm
- zone of inhibition at 500 µM ([27]; Acinetobacter baumannii, BAA1797, read-out: Zone of Growth Inhibition): 0 mm
- antibacterial activity (in words) [28]: completely inactive
- MIC [16, 33]: > 100 µM
- MIC ([9]; DC0, read-out: in vitro activity (MIC)): > 100 µM
